Entries after “also recorded” stand apart in the source; their conditions may differ.

Broadly, the logP is a log measure of how a compound divides between an organic and an aqueous phase. One may read the pKa as the pH at which an ionisable group is half protonated. Read a high pKa as a group that holds its proton tightly.

In data set [1] the test system is spontaneous human polimorphonuclear neutrophil (hPMN) migration. Kind of data set: Spontaneous hPMN migration. The data set is classed as cell-based. The source says:
chemotherapy-induced neuropathic pain”
Benedetti, Antonio Giordano, Annamaria Cimini, Marcello Allegretti.
Chemokines were from PeproTech (London, UK). Chemicals and cell culture reagents were from Sigma Aldrich (Saint Louis, MI, USA).
Cell isolation and culture
L’Aquila, Italy. Ethical clearance was obtained to perform these experiments. Human PMNs were […]
blood cells as previously described 1.
Cell viability, as measured by Trypan Blue dye exclusion, was greater than 98%. […]
microchemotaxis chamber, as previously described 2. Briefly, 25 µl of control medium (PBS for […]
the lower compartment of the chemotaxis chamber. […]
(§1) vehicle were seeded in the upper compartment. The two compartments were separated by 5 µm pre-size polycarbonate filter (polyvinylpyrrolidone-free for PMN chemotaxis). The chamber was […]
(§2) Physicochemical characterization […]
(§3) and a turbidity-sensing device. […]
(§4) water/HBSS to a final concentration of 10 μM. Cell membrane homogenates (48 μg protein) were […]

The nature of data set [2]: Aqueous solubility (SiriusT3). The format is physicochemical. As for the experimental part:
as §1, §2, §3, §4

Data set [3] can be described thus: pKa, logD7.4, logP (SiriusT3 titration). The format is physicochemical. As for the experimental part:
as §1, §2, §3, §4

The next data set has as its target CYP 2C19 (Homo sapiens, UniProt P33261). Kind of data set: CYP inhibition 2C19. The data set is classed as in vitro ADME. The source says:
(§5) Table 1 Physicochemical and in Vitro ADME Properties of DF2726A. | column: DF2726A

The next data set deals with CYP 2D6 (Homo sapiens, UniProt P10635). As to the kind of experiment: CYP inhibition 2D6. The format is in vitro ADME.
Chain of CYP 2D6 (P10635 whole entry): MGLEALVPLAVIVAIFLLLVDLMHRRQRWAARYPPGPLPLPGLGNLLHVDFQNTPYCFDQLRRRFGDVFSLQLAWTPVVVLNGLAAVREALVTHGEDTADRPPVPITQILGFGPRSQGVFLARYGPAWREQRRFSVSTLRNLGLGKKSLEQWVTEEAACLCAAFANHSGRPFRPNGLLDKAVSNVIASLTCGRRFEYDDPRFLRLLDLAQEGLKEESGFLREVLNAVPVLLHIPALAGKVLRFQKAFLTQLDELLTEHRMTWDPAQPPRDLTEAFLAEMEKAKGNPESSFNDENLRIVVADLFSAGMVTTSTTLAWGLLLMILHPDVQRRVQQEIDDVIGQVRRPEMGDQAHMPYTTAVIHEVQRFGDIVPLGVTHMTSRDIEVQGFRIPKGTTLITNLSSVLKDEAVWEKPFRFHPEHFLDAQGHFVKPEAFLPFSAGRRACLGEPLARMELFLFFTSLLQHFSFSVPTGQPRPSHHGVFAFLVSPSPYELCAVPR
Text: as §5

A further data set concerns the target T1, human COX1 (Homo sapiens, UniProt P23219).
T1 construct: host or cells: Sf-9
As to the kind of experiment: COX1 assay, PGE2 formation from arachidonic acid, recombinant enzyme. The data set is classed as biochemical. As to the method:
Protein binding in human, dog and rat plasma […]
in DMSO at a final concentration of 2 mM. […]
plasma to obtain a final concentration of 10 µM. Human, dog and rat plasma (200 µL) in triplicate […]
vials for LC-MS/MS analysis. […]
mM Tris-HCl (pH 8.0), 1.98 mM phenol and 1.02 µM hematine. Thereafter, the reaction was initiated by adding 4 µM (COX1) or 2 µM (COX2) of arachidonic acid and the mixture was incubated for 5 min at RT. For basal control measurements, arachidonic acid was omitted from the reaction mixture. Following incubation, t he reaction was stopped by the addition of 1 M HCl then 1 M Tris/HCl (pH 8.0) followed by cooling to 4°C.
The fluorescence acceptor (d2 labeled PGE2) and the fluorescence donor (anti -PGE2 antibody labeled with europium Cryptate) were then added. After 120 min, the fluorescence transfer corresponding to the amount of residual PGE2 was measured at λex=337 nm, λem=620 nm and λem=665 nm using a microplate reader (Envision, Perkin Elmer). The enzyme activity was determined by dividing the signal measured at 665 nm by that measured at 620 nm (ratio). The results were expressed as a percent age inhibition of the control enzyme activity. The standard inhibitory reference compound was Diclofenac, which was tested in each experiment at several concentrations to obtain an inhibition curve from which its IC50 value was calculated. […]

The test system of a further data set is Iba-1. Kind of data set: Western blot of DRG of oxaliplatin rats, microglia marker Iba-1. The data set is classed as in vivo, male Wistar rats. Particulars: 30 mg/kg os; p < 0.01 vs OXA rats. As to the method: (§6) Animals were sacrificed and dorsal root ganglia (DRG) (L4-L6) were removed and stored at […]. They were homogenized on ice-cold lysis buffer [20 mM Tris–HCl (pH 7.5), 10 mM NaF, 150 mM NaCl, 1% Nonidet P-40, 1 mM phenylmethylsulfonyl fluoride, 1 mM Na3VO4, leupeptin and trypsin inhibitor 10 μg/mL; 20 µl/sample, as previously described.
(§7) After 1 h, tissue lysates were obtained by centrifugation at 20,000 g for 15 min at 4 °C. Protein concentrations were estimated by the Bio-Rad protein assay using bovine serum albumin as standard.
(§8) DRG lysate proteins (30 μg) were dissolved in Laemmli sample buffer, boiled for 5 min, and separated on SDS-polyacrylamide gel elctrophoresis and transferred onto nitrocellulose membrane (240 mA for 40 min at room temperature). […] The protein bands were scanned and densitometrically analyzed with a model GS-700 imaging densitometer (Bio-Rad Laboratories, Milan, Italy). […]

In a further data set the test system is GFAP. Kind of data set: Western blot of DRG of oxaliplatin rats, astrocyte marker GFAP. To be noted: 30 mg/kg os; p < 0.01 vs OXA rats. The format is in vivo, male Wistar rats. As for the experimental part: as §6, §7, §8
In general terms: In western blotting, separated proteins are transferred to a membrane and probed.

Another data set has as its system TRPM8. As to the kind of experiment: Western blot of DRG of oxaliplatin rats, TRPM8. Particulars: 30 mg/kg os. The format is in vivo, male Wistar rats. As for the experimental part: as §6, §7, §8
The test system of the next data set is TRPA1. As to the kind of experiment: Western blot of DRG of oxaliplatin rats, TRPA1. The data set is classed as in vivo, male Wistar rats. To be noted: 30 mg/kg os. As for the experimental part: as §6, §7, §8
In the next data set the test system is p-FAK. Kind of data set: p-FAK western blotting in F11-derived neurons. To be noted: 24 h. The format is cell-based.
The next data set has as its system p-JAK2. As to the kind of experiment: p-JAK2 western blotting in F11-derived neurons. The data set is classed as cell-based. To be noted: 24 h.
Data set [4] concerns IL-8-induced hPMN chemotaxis. Particulars: read-out: IC50 (CXCL8 / IL-8-induced hPMN chemotaxis); hPMN pre-incubated 15 min at 37°C, migration 45 min.
Text: Human mononuclear cells and PMNs were obtained from buffy coats of heparinized peripheral
blood from adult healthy volunteers courtesy of Centro Trasfusionale, Ospedale S. Salvatore,
prepared to 99% purity by dextran sedimentation followed by hypotonic lysis of contaminating red
blood cells as previously described 1. PMNs were washed once with saline and then resuspended at
1.5 x 10^6/ml in HBSS for migration assay. Cell viability, as measured by Trypan Blue dye exclusion, was greater than 98%.
Migration of human PMNs was evaluated by microchamber technique in a 48-well
monocytes and HBSS for PMNs) or chemoattractant (CXCL1, CXCL8) solutions were seeded in
the lower compartment of the chemotaxis chamber. Fifty µl of cell suspension (1.5 x 10^6/ml) pre-
immersion fields at high magnification (100X; Zeiss microscope) were counted after sample
The mark [5] stands for this setting: DF2726A 1 µM + oxaliplatin 20 µM.

T1 sequence (P23219 24-599): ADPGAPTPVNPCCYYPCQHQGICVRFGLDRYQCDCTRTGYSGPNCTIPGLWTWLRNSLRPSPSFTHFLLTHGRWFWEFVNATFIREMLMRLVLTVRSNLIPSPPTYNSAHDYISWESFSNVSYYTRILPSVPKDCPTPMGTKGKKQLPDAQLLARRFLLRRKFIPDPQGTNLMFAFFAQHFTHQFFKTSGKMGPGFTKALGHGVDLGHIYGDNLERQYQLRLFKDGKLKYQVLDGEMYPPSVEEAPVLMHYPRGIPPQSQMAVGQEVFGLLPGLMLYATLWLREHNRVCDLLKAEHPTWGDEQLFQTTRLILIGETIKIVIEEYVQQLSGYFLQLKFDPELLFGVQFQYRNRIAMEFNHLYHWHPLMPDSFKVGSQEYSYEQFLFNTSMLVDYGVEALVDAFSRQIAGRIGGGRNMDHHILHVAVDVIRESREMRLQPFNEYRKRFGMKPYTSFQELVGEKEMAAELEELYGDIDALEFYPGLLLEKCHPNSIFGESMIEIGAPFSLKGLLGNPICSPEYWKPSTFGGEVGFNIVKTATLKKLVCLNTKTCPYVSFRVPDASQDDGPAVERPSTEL
Chain of CYP 2C19 (P33261 whole entry): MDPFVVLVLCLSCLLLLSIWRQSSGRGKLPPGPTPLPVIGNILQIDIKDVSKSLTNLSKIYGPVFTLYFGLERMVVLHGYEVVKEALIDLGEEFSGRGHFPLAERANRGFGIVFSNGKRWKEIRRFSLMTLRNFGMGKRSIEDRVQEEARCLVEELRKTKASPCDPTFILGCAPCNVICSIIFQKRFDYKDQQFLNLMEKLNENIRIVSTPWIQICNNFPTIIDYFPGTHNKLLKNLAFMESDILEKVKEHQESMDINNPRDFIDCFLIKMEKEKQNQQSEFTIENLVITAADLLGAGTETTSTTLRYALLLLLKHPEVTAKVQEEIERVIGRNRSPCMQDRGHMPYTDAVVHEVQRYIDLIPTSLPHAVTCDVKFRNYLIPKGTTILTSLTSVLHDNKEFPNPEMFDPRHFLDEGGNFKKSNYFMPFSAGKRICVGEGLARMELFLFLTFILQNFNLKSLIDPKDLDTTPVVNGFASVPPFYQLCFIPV

On to `CC(C)(C(=O)O)c1ccc(Nc2nc(C(F)(F)F)cs2)cc1` [DF2726A], for which, in data set [1], the “Inhibition of spontaneous hPMN migration per se” value was “did not inhibit”. In addition, in data set [2], the Acqueous solubility was above 30 mg/mL. Further, the logP in data set [3] is recorded as 4.3. The compound further had a pKa in [3] (0.15 M KCl, 25 ± 1°C) of 4.14. The same compound had a logD7.4 in data set [3] (pH 7.4) of 0.75. The IC50 against CYP 2C19 was above 30 µM; against CYP 2D6, above 30 µM; in data set [4] it was 0.01 ± 0.005 µM. On human COX1, the “COX 1 Inhibition (50 µM)” value is “did not inhibit; also recorded: No Inhibition observed”. Besides, the “Iba-1 expression in DRG of oxaliplatin rats” value with Iba-1 is “significantly reduced the expression”. In addition, the “GFAP expression in DRG of oxaliplatin rats” value in the data set on GFAP is “significantly reduced the expression”. Moreover, the “TRPM8 expression in DRG of oxaliplatin rats” value with TRPM8 is given as “significant reduction in the expression”. The “TRPA1 expression in DRG of oxaliplatin rats” value with TRPA1 was “significant reduction in the expression”. Besides, the “p-FAK levels, oxaliplatin-treated neurons” value in the data set on p-FAK (setting [5]) was “decreased in the presence of DF2726A”. Further, the “p-FAK levels, paclitaxel-treated neurons” value with p-FAK (DF2726A + paclitaxel 10 nM) is “decreased in the presence of DF2726A”. Moreover, in the data set on p-JAK2 (setting [5]), the “p-JAK2, oxaliplatin-treated neurons” value is “restored control conditions”. In the data set on p-JAK2 (DF2726A + paclitaxel 10 nM), the “p-JAK2, paclitaxel-treated neurons” value was “restored control conditions”.

The values are drawn from paper PMC6692352, “DF2726A, a new IL-8 signalling inhibitor, is able to counteract chemotherapy-induced neuropathic pain” (Scientific Reports, 2019).
